Experimental data as given in patent publication US5747517A, “Benzylidene rhodanines” (Eli Lilly and Company, priority 1996, dated 1998).

Columns and labels:
[1] = test system: β-amyloid peptide production in 293 751 SWE and CHO 751 SWE cells; assay: β-Amyloid Peptide Production Inhibition Activity In Cells (cellular assay, ELISA normalised to MTT); format: cell-based
Procedure: β-AMYLOID PEPTIDE […] (CELLULAR ASSAY)
Two cell lines (human kidney cell line 293 and Chinese hamster ovary cell line CHO) were stably transfected with the gene for APP751 containing the double mutation Lys651 -Met652 to Asn651 -Leu652 (APP-751 numbering) commonly called the Swedish mutation using the method described in Citron, et al., Nature 360:672-674 (1992). The transfected cell lines were designated as 293 751 SWE and CHO 751 SWE, and were plated in Corning 96 well plates at 2.5×10^4 or 1×10^4 cells per well respectively in Dulbecco's minimal essential media (DMEM) plus 10% fetal bovine serum. Following overnight incubation at 37° C. in an incubator equilibrated with 10% carbon dioxide (CO2), the media were removed and replaced with 200 μl per well of media containing an aspartyl protease inhibitor. After a two hour pretreatment period, the media were again removed and replaced with fresh media containing the aspartyl protease inhibitor and the cells were incubated for an additional two hours.
After treatment, plates were centrifuged at 1200 rpm for five minutes at room temperature to pellet cellular debris from the conditioned media. From each well, 100 μl of conditioned media were transferred into an ELISA plate precoated with antibody 266 against β-amyloid peptide(13-28) (Seubert et al., supra. ) and stored at 4° C. overnight. An ELISA assay employing labelled antibody 6C6 (against β-amyloid peptide-1-16) was run the next day to measure the amount of β-amyloid peptide produced.
Cytotoxic effects of the compounds were measured by a modification of the method of Hansen et al., (1989) J. Immun. Meth. 119:203-210. To the cells remaining in the tissue culture plate, was added 25 μl of a 3-(4,5-dimethylthiazol-2-yl)2,5-diphenyltetrazolium bromide (MTT) stock solution (5 mg/ml) to a final concentration of […]. Cells were incubated at 37° C. for one hour, and cellular activity was stopped by the addition of an equal volume of MTT lysis buffer (20% w/v sodium dodecylsulfate in 50% DMF, pH 4.7). Complete extraction was achieved by overnight shaking at room temperature. The difference in the OD562nm and the OD650nm was measured in a Uvmax microplate reader as an indicator of the cellular viability.
The results of the β-amyloid peptide ELISA were fit to a standard curve and expressed as ng/ml β-amyloid peptide. In order to normalize for cytotoxicity, these β-amyloid peptide results were divided by the MTT results and expressed as a percentage of the results from a drug-free control.

cathepsin D = biological target: T1, cathepsin D (Homo sapiens, UniProt P07339); assay: Cathepsin D Inhibition Assay (non-cellular); format: biochemical
T1 construct: Human brain cathepsin D was purified from frozen post-mortem cortex; from tissue; host or cells: human tissue: brain cortex (Assay 1), liver (Assay 2, bought from Athens Research and Technology) or placenta (Assay 3); the results are not tied to one of them
Excerpt: First, test compounds which inhibit exemplary aspartyl proteases, particularly cathepsin D, are identified as aspartyl protease inhibitors. As used herein, the term "test system" refers to an assay that is designed to measure aspartyl protease inhibitory activity. A typical test system used for such identification is a non-cellular assay where turnover of the protease substrate is monitored upon the administering of a protease inhibitor. The turnover of the protease […] is then compared to the turnover of substrate in a control test system in which no such aspartyl protease inhibitor has been administered. As used herein, the term "control test system" refers to an identical test system that is run side-by-side with the test system with the exception no aspartyl protease inhibitor is administered. This non-cellular assay is used to identify those test compounds having suitable aspartyl protease inhibitory activity in a non-cellular environment. An example of a non-cellular assay that may be used to determine in vitro aspartyl protease inhibitory activity reacts partially purified human brain cathepsin D with a substrate, e.g., porcine renin tetradecapeptide. The resultant reaction mixture is divided into portions and each portion is incubated for a different period of time. After the reaction is stopped, the turnover of substrate in each portion is determined using reverse-phase high performance liquid chromatography (HPLC). Protease inhibition activity may be calculated based on the rates of substrate turnover. This assay is exemplified in Assay 1, below. A second non-cellular assay for determining in vitro aspartyl protease inhibitory activity utilizes a microtiter plate, where a suitable aspartyl protease, such as a cathepsin D is added to each well together with controls. A suitable fluorometric substrate is added to each well. The resultant reaction mixture is allowed to react for a preselected time, e.g., 30 minutes. After enzyme activity is terminated, the substrate or its product may be determined fluorometrically and then the protease inhibition activity may be calculated based on the rates of substrate turnover. This assay is exemplified in Assay 2, below. CATHEPSIN D INHIBITION ACTIVITY (NON-CELLULAR ASSAY) Human brain cathepsin D was purified from frozen post-mortem cortex substantially in accordance with the method of Nixon and Morotta, (1984) J. Neurochem. 43:507-516. The cortex material was prepared and applied to a DEAE-Sepharose® column. The flow through fraction was dialyzed against 50 mM Tris-HCl, pH 7.5, and applied to concanavalin A Sepharose® and eluted with 50 mM Tris, pH 7.5, 0.5M methyl α-D-mannopyranoside. The eluted cathepsin D activity was dialyzed against 25 mM Tris, pH 7.5, and stored at -40° C. (Con A pool) until use. […] The substrate, a porcine renin tetradecapeptide,was added to each reaction mixture to yield a final concentration of 44 μM in a total volume of 300 μl. The samples were incubated at 37° C. for 0, 10, 20, or 30 minutes, and then boiled for 5 minutes to stop the reaction. The samples were centrifuged in a microcentrifuge for 10 minutes at 14,000 rpm at 4° C. After centrifugation, 200 μL of each reaction was injected onto a C18 reverse phase liquid chromatography column (Vydac, Hesperia, Calif.) with a Perkin Elmer ISS 100 autosampler and eluted with a gradient of 0-50% CH3 CN in 0.1% CF3 CO2 H at 2 ml/min. Peptide product peaks were monitored at 220 nm with a Perkin Elmer LC 95 detector and integrated with Rainin Dynamax software in order to quantitate activity. CATHEPSIN D INHIBITION ACTIVITY (NON-CELLULAR FLUOROMETIC ASSAY) A fluorometric assay was adapted from the method disclosed by Murakami et al., (1981) Anal. Biochem. 110:232-239 for measuring renin activity. […] Compound stocks were prepared by dissolving an aspartyl protease inhibitor in DMSO for each concentration tested in the assay and then 5 μL of compound stock was added to each of the wells prepared above. […]

T1 sequence (P07339 169-412 limits assumed): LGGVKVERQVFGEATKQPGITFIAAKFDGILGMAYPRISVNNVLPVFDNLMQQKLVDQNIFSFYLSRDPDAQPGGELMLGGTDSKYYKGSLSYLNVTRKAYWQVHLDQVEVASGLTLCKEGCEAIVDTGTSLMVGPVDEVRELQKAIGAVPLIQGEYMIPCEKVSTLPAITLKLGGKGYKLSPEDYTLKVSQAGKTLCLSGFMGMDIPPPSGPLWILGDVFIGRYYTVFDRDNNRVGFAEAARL
T1 sequence (P07339 65-162 limits assumed): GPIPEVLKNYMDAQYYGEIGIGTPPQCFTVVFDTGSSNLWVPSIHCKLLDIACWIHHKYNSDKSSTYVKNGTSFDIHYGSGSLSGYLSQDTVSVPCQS

## CCCc1c(COc2ccc(C=C3SC(=S)NC3=O)cc2)ccc(C(C)=O)c1O [Example 1, 5-[[4-[(4-acetyl-3-hydroxy-2-propylphenyl)methoxy]phenyl]methylene]-2-thioxo-4-thiazolidinone]
[1]; 0.31 μg/ml, read-out: Percent Inhibition (β-amyloid peptide production)
  inhibition at 0.31 µg/mL: 4%
[1]; 0.62 μg/ml, read-out: Percent Inhibition (β-amyloid peptide production)
  inhibition at 0.62 µg/mL: 0%
[1]; 1.25 μg/ml, read-out: Percent Inhibition (β-amyloid peptide production)
  inhibition at 1.25 µg/mL: 15%
[1]; 2.50 μg/ml, read-out: Percent Inhibition (β-amyloid peptide production)
  inhibition at 2.5 µg/mL: 15%
[1]; 5.00 μg/ml, read-out: Percent Inhibition (β-amyloid peptide production)
  inhibition at 5 µg/mL: 26%
[1]; 10.0 μg/ml
  Percent Inhibition (β-amyloid peptide production): 45%
[1]; 10.0 μg/ml, read-out: Percent Inhibition (β-amyloid peptide production)
  inhibition at 10 µg/mL: 60%
Cathepsin D; 0.31 μg/ml, read-out: Percent Inhibition (cathepsin D)
  inhibition at 0.31 µg/mL: 4%
Cathepsin D; 0.62 μg/ml, read-out: Percent Inhibition (cathepsin D)
  inhibition at 0.62 µg/mL: 0%
Cathepsin D; 1.25 μg/ml, read-out: Percent Inhibition (cathepsin D)
  inhibition at 1.25 µg/mL: 15%
Cathepsin D; 2.50 μg/ml, read-out: Percent Inhibition (cathepsin D)
  inhibition at 2.5 µg/mL: 15%
Cathepsin D; 5.00 μg/ml, read-out: Percent Inhibition (cathepsin D)
  inhibition at 5 µg/mL: 26%
Cathepsin D; 10.0 μg/ml
  Percent Inhibition (cathepsin D): 45%
Cathepsin D; 10.0 μg/ml, read-out: Percent Inhibition (cathepsin D)
  inhibition at 10 µg/mL: 60%
